Source: patent publication US7511041B2, “Fused azole-pyrimidine derivatives” (Bayer Pharmaceuticals Corporation, priority 2002, dated 2009)
Counter-ions that a name gives are not always drawn. Like-named read-outs stand apart in the source and are kept apart here.

Assays:
[1] = target: T1, Recombinant human PI3Kγ (full length human PI3K p110γ) (Homo sapiens, UniProt P48736); assay: Kinase assay of PI3Kγ (solid-phase lipid kinase assay); assay type: biochemical
T1 construct: full length human PI3K p110γ fused with a His6-tag at the C-terminus; His6 (C); purchased ALEXIS BIOCHEMICALS #201-055-C010; host or cells: S. frugiperda 9 insect cells
T1 sequence (P48736 whole entry, the tested form may be a part): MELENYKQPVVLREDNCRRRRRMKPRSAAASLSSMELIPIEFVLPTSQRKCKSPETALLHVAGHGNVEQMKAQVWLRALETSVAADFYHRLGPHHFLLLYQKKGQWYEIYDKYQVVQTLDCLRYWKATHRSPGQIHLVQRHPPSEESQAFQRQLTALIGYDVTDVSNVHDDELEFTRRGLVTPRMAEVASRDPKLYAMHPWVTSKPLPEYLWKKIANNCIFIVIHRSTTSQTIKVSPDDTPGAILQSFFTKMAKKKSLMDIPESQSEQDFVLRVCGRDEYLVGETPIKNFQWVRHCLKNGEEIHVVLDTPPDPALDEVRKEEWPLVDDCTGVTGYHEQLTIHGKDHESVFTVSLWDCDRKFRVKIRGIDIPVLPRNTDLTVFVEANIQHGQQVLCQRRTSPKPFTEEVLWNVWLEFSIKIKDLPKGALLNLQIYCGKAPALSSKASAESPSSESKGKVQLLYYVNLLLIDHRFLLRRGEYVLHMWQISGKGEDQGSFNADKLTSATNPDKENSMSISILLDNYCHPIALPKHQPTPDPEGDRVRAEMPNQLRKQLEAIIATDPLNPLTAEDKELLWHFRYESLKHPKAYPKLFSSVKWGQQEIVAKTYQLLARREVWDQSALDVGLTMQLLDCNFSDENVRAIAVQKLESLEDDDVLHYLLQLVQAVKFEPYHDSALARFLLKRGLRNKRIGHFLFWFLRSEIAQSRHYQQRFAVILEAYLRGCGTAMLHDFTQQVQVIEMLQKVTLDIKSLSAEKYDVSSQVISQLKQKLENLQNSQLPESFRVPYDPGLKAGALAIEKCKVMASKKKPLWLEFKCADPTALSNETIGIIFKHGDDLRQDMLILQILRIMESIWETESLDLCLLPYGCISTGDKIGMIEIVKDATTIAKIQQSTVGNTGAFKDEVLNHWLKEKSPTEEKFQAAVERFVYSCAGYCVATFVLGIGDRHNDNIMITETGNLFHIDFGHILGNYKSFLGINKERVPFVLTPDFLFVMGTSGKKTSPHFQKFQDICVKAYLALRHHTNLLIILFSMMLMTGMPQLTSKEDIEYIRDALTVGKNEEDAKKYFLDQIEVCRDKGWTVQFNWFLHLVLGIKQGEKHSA

[2] = target: PI3Kβ (heterocomplex of p110β and GST-p85α) (UniProt Q9Z1L0); assay: Isozyme selectivity test: kinase assay of PI3Kβ; assay type: biochemical; conditions: activity class of IC50, read-out: In vitro PI3K-β inhibitory activity
Experimental: [Isozyme Selectivity Test in PI3K]
{Determination of IC50 Values of Compounds in Kinase Assay of PI3Kβ}
Recombinant baculovirus of PI3Kβ p110β and GST-p85α were obtained from Dr. Katada (University of Tokyo). Recombinant PI3K heterocomplex of p110β and GST-p85α were co-expressed in insect cells according to manufacture's instruction (Pharmingen, San Diego, Calif.), and purified with glutathione affinity column. Kinase assay of PI3Kβ was prepared in a similar manner as described in the part of [Determination of IC50 values of compounds in kinase assay of PI3Kγ].

[3] = activity class of IC50, read-out: In vitro PI3K-γ inhibitory activity
[4] = in vitro PI3K-γ inhibitory activity, class symbols A-D, read-out: in vitro PI3K-gamma

Structure (SMILES) | IC50 [1, 3] | IC50 [2] | melting point | IC50 ([2]; hydrochloride) | IC50 [1, 4]
COc1cc2c(cc1OC)C1=NCCN1C(/C=C(\O)c1cccnc1)=N2 [Example 1-1, (Z)-2-(8,9-Dimethoxy-2,3-dihydroimidazo[1,2-c]quinazolin-5-yl)-1-(3-pyridinyl)ethenol] | < 0.1 µM | 0.5 to 2 µM | 275 °C |  | 
COc1c(O)ccc2c1N=C(/C=C(\O)c1cccnc1)N1CCN=C21 [Example 1-4, 5-(2-Hydroxy-2-pyridin-3-ylvinyl)-7-methoxy-2,3-dihydroimidazo[1,2-c]quinazolin-8-ol hydrochloride] | < 0.1 µM | 0.5 to 2 µM |  |  | 
COC(=O)CCCOc1ccc2c(c1OC)N=C(/C=C(\O)c1cccnc1)N1CCN=C21 [Example 1-5, Methyl 4-{[5-(2-hydroxy-2-pyridin-3-ylvinyl)-7-methoxy-2,3-dihydroimidazo[1,2-c]quinazolin-8-yl]oxy}butanoate] | < 0.1 µM | 0.5 to 2 µM | 199 to 200 °C |  | 
COc1c(OCCCC(=O)O)ccc2c1N=C(/C=C(\O)c1cccnc1)N1CCN=C21 [Example 1-6, 4-{[5-(2-Hydroxy-2-pyridin-3-ylvinyl)-7-methoxy-2,3-dihydroimidazo[1,2-c]quinazolin-8-yl]oxy}butanoic acid] | < 0.1 µM | 0.1 to 0.5 µM |  |  | 
COc1c(OCCCC(=O)N2CCOCC2)ccc2c1N=C(/C=C(\O)c1cccnc1)N1CCN=C21 [Example 1-8, 2-[7-Methoxy-8-(4-morpholin-4-yl-4-oxobutoxy)-2,3-dihydroimidazo[1,2-c]quinazolin-5-yl]-1-pyridin-3-ylethylenol] | < 0.1 µM | 0.1 to 0.5 µM | 234 to 235 °C |  | 
O=C(NC1=Nc2ccccc2C2=NCCN12)c1cccnc1 [Example 2-1, N-(2,3-Dihydroimidazo[1,2-c]quinazolin-5-yl)nicotinamide] | < 0.1 µM | 0.1 to 0.5 µM | 238 to 239 °C (dec.) |  | 
CC(=O)Nc1ccc(C(=O)NC2=Nc3cc(N4CCOCC4)ccc3C3=NCCN23)cn1 [Example 2-3, 6-(Acetamido)-N-[8-(morpholin-4-yl)-2,3-dihydroimidazo[1,2-c]quinazolin-5-yl]nicotinamide] | < 0.1 µM | 0.5 to 2 µM |  |  | 
CC(=O)Nc1ccc(C(=O)NC2=Nc3cc(N4CCOCC4)ccc3C3=NCCN23)cn1 [Example 2-4, 6-(Acetamido)-N-[8-(morpholin-4-yl)-2,3-dihydroimidazo[1,2-c]quinazolin-5-yl]nicotinamide hydrochloride] |  |  |  | 0.1 to 0.5 µM | 
O=C(NC1=Nc2cc(O)ccc2C2=NCCN12)c1cccnc1 [Example 2-5, N-(8-Hydroxy-2,3-dihydroimidazo[1,2-c]quinazolin-5-yl)nicotinamide] | 0.1 to 0.5 µM | 0.5 to 2 µM | 289 °C |  | 
O=C(NC1=Nc2cc(OCCn3cccc3)ccc2C2=NCCN12)c1cccnc1 [Example 2-6, N-{8-[2-(1-pyrrolyl)ethoxy]-2,3-dihydroimidazo[1,2-c]quinazolin-5-yl}nicotinamide] | 0.1 to 0.5 µM | 0.1 to 0.5 µM | 209 °C |  | 
O=C(NC1=Nc2cccc(Cl)c2C2=NCCN12)c1cccs1 [Example 2-358] |  |  | 233 °C |  | > 2 µM
Cl.O=C(NC1=Nc2cccc(Cl)c2C2=NCCN12)c1cccs1 [Example 2-359] |  |  | 227 °C |  | 0.5 to 2 µM
O=C(NC1=Nc2ccc(F)cc2C2=NCCN12)c1cccnc1 [Example 2-360] |  |  | 242 °C |  | 0.5 to 2 µM
O=C(NC1=Nc2ccc([N+](=O)[O-])cc2C2=NCCN12)c1cccnc1.O=C(O)C(F)(F)F [Example 2-362] |  |  | 224 °C |  | 0.5 to 2 µM
C[C@H]1CN2C(NC(=O)c3cccnc3)=Nc3ccccc3C2=N1.Cl [Example 2-363] |  |  | 204 °C (dec.) |  | > 2 µM
CCC(C)[C@H]1CN2C(NC(=O)c3cccnc3)=Nc3ccccc3C2=N1.Cl (some centres unmarked) [Example 2-364] |  |  | 230 to 240 °C |  | > 2 µM
Cl.NC(=O)C1CN2C(NC(=O)c3cccnc3)=Nc3ccccc3C2=N1 (centres unmarked) [Example 2-365] |  |  | 274 °C (dec.) |  | > 2 µM
C[C@@H]1CN=C2c3ccccc3N=C(NC(=O)c3cccnc3)N21.Cl [Example 2-366] |  |  | 270 °C (dec.) |  | > 2 µM
COc1ccc2c(c1OC)N=C(NC(=O)c1cncc(O)c1)N1CCN=C21.Cl [Example 2-368] |  |  | 240 °C (dec.) |  | < 0.1 µM
O/C(=C\c1nc2ccccc2c2nccn12)c1cccs1 [Example 3-1, (Z)-2-Imidazo[1,2-c]quinazolin-5-yl-1-(2-thienyl)ethenol] | > 2 µM |  | 128 °C |  | 
O=C(Nc1nc2ccccc2c2nccn12)c1cccnc1 [Example 4-1, N-Imidazo[1,2-c]quinazolin-5-ylnicotinamide] | 0.5 to 2 µM |  | 223 to 224 °C (dec.) |  | 
